From PMC11079024, “Identification of a family of species-selective complex I inhibitors as potential anthelmintics” (Nature Communications, 2024)
Values joined by “and” are separate entries in the source; they are usually repeats but may differ in a detail not shown here. Identical values can stand only once. Like-named read-outs stand apart in the source and are kept apart here.

Assays:
L1 wild-type C. elegans [1] = settings: drug + KCN, 15-hour; for KCN survival assay value relative to DMSO control, Mean: mean of replicates; for KCN survival assay value relative to DMSO control: single replicates
L1 wild-type C. elegans [2] = assay: 15-hour motility assay with drug alone (no KCN); assay type: cell-based, Caenorhabditis elegans; settings: without KCN, 15-hour; for Value relative to DMSO control, drug alone (without KCN), Mean: mean of replicates; for Value relative to DMSO control, drug alone (without KCN): single replicates
L1 wild-type C. elegans [3] = assay: whole plant or invertebrate; settings: Caenorhabditis elegans, 15 h
C. elegans = C. elegans chemical screens of RIKEN NPD libraries at 50 μM (hit identification in KCN survival and development/viability assays); assay type: cell-based, Caenorhabditis elegans; settings: screened at 50 μM in triplicate; […]; KCN = KCN survival assay, Dev. & Viability = development/viability assay
[4] = read-out: C. elegans KCN survival assay LC50

Row | SMILES | KCN survival assay value relative to DMSO control, Mean (L1 wild-type C. elegans [1]; 0.025 µM) | KCN survival assay value relative to DMSO control (L1 wild-type C. elegans [1]; 0.025 µM) | KCN survival assay value relative to DMSO control, Mean (L1 wild-type C. elegans [1]; 0.05 µM) | KCN survival assay value relative to DMSO control (L1 wild-type C. elegans [1]; 0.05 µM) | KCN survival assay value relative to DMSO control, Mean (L1 wild-type C. elegans [1]; 0.1 µM) | KCN survival assay value relative to DMSO control (L1 wild-type C. elegans [1]; 0.1 µM) | KCN survival assay value relative to DMSO control, Mean (L1 wild-type C. elegans [1]; 0.2 µM) | KCN survival assay value relative to DMSO control, Mean (L1 wild-type C. elegans [1]; 0.4 µM) | KCN survival assay value relative to DMSO control, Mean (L1 wild-type C. elegans [1]; 0.8 µM) | KCN survival assay value relative to DMSO control, Mean (L1 wild-type C. elegans [1]; 3.1 µM) | KCN survival assay value relative to DMSO control, Mean (L1 wild-type C. elegans [1]; 6.3 µM) | KCN survival assay value relative to DMSO control, Mean (L1 wild-type C. elegans [1]; 12.5 µM) | KCN survival assay value relative to DMSO control, Mean (L1 wild-type C. elegans [1]; 25 µM) | Value relative to DMSO control, drug alone (without KCN), Mean (L1 wild-type C. elegans [2]; 0.025 µM) | Value relative to DMSO control, drug alone (without KCN) (L1 wild-type C. elegans [2]; 0.025 µM) | Value relative to DMSO control, drug alone (without KCN), Mean (L1 wild-type C. elegans [2]; 0.05 µM) | Value relative to DMSO control, drug alone (without KCN) (L1 wild-type C. elegans [2]; 0.05 µM) | Value relative to DMSO control, drug alone (without KCN), Mean (L1 wild-type C. elegans [2]; 0.1 µM) | Value relative to DMSO control, drug alone (without KCN) (L1 wild-type C. elegans [2]; 0.1 µM) | Value relative to DMSO control, drug alone (without KCN), Mean (L1 wild-type C. elegans [2]; 0.2 µM) | other results
1 | O=C(Nc1ccc(Oc2ccc(Cl)cc2)c(Cl)c1)c1cc(I)cc(I)c1O [Rafoxanide] | 0.992 | 1.081 and 1.011 and 0.883 | 0.890 | 0.979 and 0.794 and 0.899 | 0.788 | 1.030 and 0.770 and 0.563 | 0.261 | 0.0026 | 0.0007 | 0.000 | 0.0019 | 0.000 | 0.000 | 1.251 | 1.299 and 1.275 and 1.179 | 1.063 | 1.000 and 1.187 | 0.952 | 0.779 and 1.140 and 0.937 | 0.871 | KCN survival assay value relative to DMSO control (L1 wild-type C. elegans [1]; 3.1 µM): 0.000; KCN survival assay value relative to DMSO control (L1 wild-type C. elegans [1]; 12.5 µM): 0.000; KCN survival assay value relative to DMSO control (L1 wild-type C. elegans [1]; 25 µM): 0.000; Value relative to DMSO control, drug alone (without KCN) (L1 wild-type C. elegans [2]; 0.2 µM): 0.876 and 1.068 and 0.668; Value relative to DMSO control, drug alone (without KCN), Mean (L1 wild-type C. elegans [2]; 0.4 µM): 0.805; Value relative to DMSO control, drug alone (without KCN) (L1 wild-type C. elegans [2]; 0.4 µM): 0.814 and 0.980 and 0.622; Value relative to DMSO control, drug alone (without KCN), Mean (L1 wild-type C. elegans [2]; 0.8 µM): 0.942; Value relative to DMSO control, drug alone (without KCN) (L1 wild-type C. elegans [2]; 0.8 µM): 0.867 and 0.978 and 0.981; Value relative to DMSO control, drug alone (without KCN), Mean (L1 wild-type C. elegans [2]; 3.1 µM): 0.954; Value relative to DMSO control, drug alone (without KCN) (L1 wild-type C. elegans [2]; 3.1 µM): 1.089 and 0.794 and 0.978; Value relative to DMSO control, drug alone (without KCN), Mean (L1 wild-type C. elegans [2]; 6.3 µM): 1.113; Value relative to DMSO control, drug alone (without KCN) (L1 wild-type C. elegans [2]; 6.3 µM): 1.082 and 1.203 and 1.055; Value relative to DMSO control, drug alone (without KCN), Mean (L1 wild-type C. elegans [2]; 12.5 µM): 1.298; Value relative to DMSO control, drug alone (without KCN) (L1 wild-type C. elegans [2]; 12.5 µM): 1.422 and 1.293 and 1.177; Value relative to DMSO control, drug alone (without KCN), Mean (L1 wild-type C. elegans [2]; 25 µM): 1.108; Value relative to DMSO control, drug alone (without KCN) (L1 wild-type C. elegans [2]; 25 µM): 1.103 and 1.144 and 1.075; LC50 (L1 wild-type C. elegans [3]; [4]): 141 nM
2 | O=C(Nc1cc(Cl)cc(Cl)c1O)c1c(O)c(Cl)cc(Cl)c1Cl [Oxyclozanide] | 1.036 | 1.103 and 1.007 and 0.999 | 1.033 | 1.103 and 1.025 and 0.972 | 0.765 | 0.944 and 0.659 and 0.693 | 0.371 | 0.077 | 0.012 | 0.000 | 0.000 | 0.0006 | 0.000 | 0.970 | 1.075 and 0.779 and 1.056 | 1.040 | 0.978 and 1.142 and 1.000 | 1.014 | 1.026 and 1.091 and 0.926 | 0.862 | KCN survival assay value relative to DMSO control (L1 wild-type C. elegans [1]; 0.2 µM): 0.478 and 0.398 and 0.238; KCN survival assay value relative to DMSO control (L1 wild-type C. elegans [1]; 3.1 µM): 0.000; KCN survival assay value relative to DMSO control (L1 wild-type C. elegans [1]; 6.3 µM): 0.000; KCN survival assay value relative to DMSO control (L1 wild-type C. elegans [1]; 25 µM): 0.000; Value relative to DMSO control, drug alone (without KCN) (L1 wild-type C. elegans [2]; 0.2 µM): 0.850 and 0.960 and 0.775; Value relative to DMSO control, drug alone (without KCN), Mean (L1 wild-type C. elegans [2]; 0.4 µM): 0.811; Value relative to DMSO control, drug alone (without KCN) (L1 wild-type C. elegans [2]; 0.4 µM): 0.730 and 0.844 and 0.861; Value relative to DMSO control, drug alone (without KCN), Mean (L1 wild-type C. elegans [2]; 0.8 µM): 0.863; Value relative to DMSO control, drug alone (without KCN) (L1 wild-type C. elegans [2]; 0.8 µM): 0.803 and 1.008 and 0.777; Value relative to DMSO control, drug alone (without KCN), Mean (L1 wild-type C. elegans [2]; 3.1 µM): 0.927; Value relative to DMSO control, drug alone (without KCN) (L1 wild-type C. elegans [2]; 3.1 µM): 0.899 and 1.068 and 0.814; Value relative to DMSO control, drug alone (without KCN), Mean (L1 wild-type C. elegans [2]; 6.3 µM): 0.856; Value relative to DMSO control, drug alone (without KCN) (L1 wild-type C. elegans [2]; 6.3 µM): 0.946 and 0.940 and 0.683; Value relative to DMSO control, drug alone (without KCN), Mean (L1 wild-type C. elegans [2]; 12.5 µM): 0.986; Value relative to DMSO control, drug alone (without KCN) (L1 wild-type C. elegans [2]; 12.5 µM): 0.842 and 1.234 and 0.881; Value relative to DMSO control, drug alone (without KCN), Mean (L1 wild-type C. elegans [2]; 25 µM): 0.843; Value relative to DMSO control, drug alone (without KCN) (L1 wild-type C. elegans [2]; 25 µM): 0.680 and 1.053 and 0.797; LC50 (L1 wild-type C. elegans [3]; [4]): 158 nM
3 | CCCC/C=C\C/C=C\CCCCCCCCc1cccc(O)c1C(=O)O [6-heptadeca-9Z,12Z-dienyl salicylic acid] |  |  |  |  |  |  |  |  |  |  |  |  |  |  |  |  |  |  |  |  | Hit Type (C. elegans): KCN; LC50 (L1 wild-type C. elegans [3]; read-out: C. elegans KCN Survival Assay LC50): 3970 nM
4 | Cc1cc(C(C#N)c2ccc(Cl)cc2)c(Cl)cc1NC(=O)c1cc(I)cc(I)c1O (stereo not drawn) [Closantel] | 0.976 | 0.959 and 0.928 and 1.042 | 0.987 | 1.068 and 0.937 and 0.955 | 0.937 | 0.967 and 0.903 and 0.941 | 0.886 | 0.363 | 0.018 | 0.000 | 0.000 | 0.0065 | 0.0037 | 1.096 | 1.270 and 1.000 and 1.019 | 0.995 | 1.190 and 0.812 and 0.983 | 0.999 | 1.131 and 0.827 and 1.040 | 1.003 | KCN survival assay value relative to DMSO control (L1 wild-type C. elegans [1]; 0.2 µM): 1.054 and 0.849 and 0.755; KCN survival assay value relative to DMSO control (L1 wild-type C. elegans [1]; 0.4 µM): 0.480 and 0.444 and 0.164; KCN survival assay value relative to DMSO control (L1 wild-type C. elegans [1]; 6.3 µM): 0.000; Value relative to DMSO control, drug alone (without KCN) (L1 wild-type C. elegans [2]; 0.2 µM): 1.030 and 1.024 and 0.957; Value relative to DMSO control, drug alone (without KCN), Mean (L1 wild-type C. elegans [2]; 0.4 µM): 0.958; Value relative to DMSO control, drug alone (without KCN) (L1 wild-type C. elegans [2]; 0.4 µM): 1.006 and 0.910 and 0.957; Value relative to DMSO control, drug alone (without KCN), Mean (L1 wild-type C. elegans [2]; 0.8 µM): 1.081; Value relative to DMSO control, drug alone (without KCN) (L1 wild-type C. elegans [2]; 0.8 µM): 1.194 and 1.047 and 1.003; Value relative to DMSO control, drug alone (without KCN), Mean (L1 wild-type C. elegans [2]; 3.1 µM): 0.969; Value relative to DMSO control, drug alone (without KCN) (L1 wild-type C. elegans [2]; 3.1 µM): 1.240 and 0.805 and 0.863; Value relative to DMSO control, drug alone (without KCN), Mean (L1 wild-type C. elegans [2]; 6.3 µM): 1.048; Value relative to DMSO control, drug alone (without KCN) (L1 wild-type C. elegans [2]; 6.3 µM): 1.218 and 0.919 and 1.007; Value relative to DMSO control, drug alone (without KCN), Mean (L1 wild-type C. elegans [2]; 12.5 µM): 1.059; Value relative to DMSO control, drug alone (without KCN) (L1 wild-type C. elegans [2]; 12.5 µM): 1.241 and 0.872 and 1.065; Value relative to DMSO control, drug alone (without KCN), Mean (L1 wild-type C. elegans [2]; 25 µM): 0.703; Value relative to DMSO control, drug alone (without KCN) (L1 wild-type C. elegans [2]; 25 µM): 0.678 and 0.775 and 0.655; LC50 (L1 wild-type C. elegans [3]; [4]): 332 nM
